These results are taken from patent US20190359645A1, “2'3'-CYCLIC DINUCLEOTIDES COMPRISING CARBOCYCLIC NUCLEOTIDE” (Institute of Organic Chemistry and Biochemistry ASCR, V.V.I., priority 2018, published 2019).

The structures appear in SMILES notation.

This assay has as its target T1, AQ STING (G230A-R293Q) (Homo sapiens, UniProt Q86WV6, G230A/H232R/R293Q).
T1 construct: truncated human WT STING or AQ STING (amino acid residues 140-343); 8xHis (N, cleaved yes); SUMO (N, cleaved yes); made in house; host or cells: E. coli Rosetta-gami B (DE3)
Description: Differential scanning fluorimetry (DSF) with AQ STING. Format: binding. The note with it: thermal shift, truncated human AQ STING 0.1 mg/ml, 150 μM CDN; for ΔTm at 150 µM: read-out: DSF ΔTm AQ STING. The text has this:
Both WT and AQ human STING (G230A-R^293Q) cDNA were amplified by the use of PCR (Phusion® High-Fidelity DNA Polymerase, cat. # M0530S, NEB, Ipswich, USA) using oligonucleotides hSTING140-BamH-For ([…]) (SEQ ID NO:5) and hSTING379-Not-Rev3 ([…]) (SEQ ID NO:6) from pUNOI-hSTING-WT (cat. # punol-hstingwt, InvivoGen, San Diego, USA) and pUNO1-hSTING-HAQ plasmids (punol-hsting-haq, InvivoGen, San Diego, USA). Purified PCR products were cleaved with restriction enzymes BamHI (cat. # R^0136S, NEB, Ipswich, USA) and NotI (cat. # R^0189S, NEB, Ipswich, USA) and cloned into the pSUMO vector linearized with the identical enzymes. Plasmid pSUMO was created by introducing 8-His-SUMO sequence between NdeI and BamHI sites of pHis-parallel2 plasmid (Clontech, Moutain View, USA). pSUMO-STING WT or pSUMO-STING AQ plasmids thus encoded truncated human WT STING or AQ STING (amino acid residues 140-343) with N-terminal 8×His and SUMO tag.
The recombinant WT STING and AQ STING proteins were overexpressed in Rosetta-gami B (DE3) competent cells (cat. #71136-3, Merck Millipore, Billerica, USA). Bacterial pellets were re-suspended in ice-cold lysis buffer containing 50 mmol·l^−1 TrisCl (cat. # T1503, Sigma Aldrich, Czech Republic) pH 8.0, 300 mmol·l^−1 NaCl, 3 mmol·l^−1 (3-mercaptoethanol (cat. # M6250, Sigma Aldrich, Czech Republic), 10% glycerol (cat. #G5516, Sigma Aldrich, Czech Republic) and 20 mmol·l^−1 imidazole (cat. #15513, Sigma Aldrich, Czech Republic) using Dounce homogenizer. DNase I (cat. # D5025, Sigma Aldrich, Czech Republic) and RNase A (cat. # R^6513, Sigma Aldrich, Czech Republic) were added (final concentration 50 μg/ml) together with MgCl2 (final concentration 5 mmol·l^−1) to the homogenate and bacteria were lysed using French Press G-M™ High-Pressure Cell Press Homogenizer (1500 psi, 3 cycles). Lysate was spun 30,000 g for 20 minutes and supernatant was gently stirred with Ni-NTA resin (cat. #745400.25 Macherey-Nagel, Duren, Germany) for 30 minutes. The resin was poured into a chromatography column, washed with 50 ml buffer A (50 mmol·l^−1 TrisCl (pH 8.0), 800 mmol·l^−1 NaCl, 3 mmol·l^−1β-mercaptoethanol; 10% glycerol; 20 mmol·l^−1 imidazole) and 8-His-SUMO tagged STING proteins were eluted with 15 ml buffer A containing 300 mmol·l^−1 imidazole. The eluted proteins were cleaved with recombinant SUMO protease (80 pig/ml of protein solution, cat. #12588018, ThermoFisher, Waltham, USA). The proteins were further purified by size exclusion chromatography using HiLoad 16/60 Superdex 75 (cat. #28989333, GE Healthcare Bio-Sciences, Pittsburgh, USA) in 50 mmol·l^−1 Tris C1 buffer pH 7.4 containing 150 mmol·l^−1 NaCl, and 10% glycerol. Proteins were concentrated with Amicon® Ultra-15 10 K device (cat. # UFC901008, Merck Millipore, Billerica, USA) and flash frozen in liquid N2.
WT and AQ allelic forms of STING protein were diluted to the final concentration 0.1 mg/ml in 100 mmol·l^−1 TrisCl buffer pH 7.4 containing, 150 mmol·l^−1 NaCl, 1:500 SYPRO Orange (cat. # S6650, ThermoFisher, Waltham, USA) and 150 μM CDN or water. 20 μL solutions of the reaction mixtures were pipetted in triplicates into 96 well optical reaction plates and thermal denaturation of samples were performed on real time PCR cycler (LightCycler® 480 Instrument II—Roche, Basel, Switzerland). The first derivative of the thermal denaturation curves was performed to calculate denaturing temperatures of STING-CDN complexes and STING apoproteins. The thermal shift for each CDN was calculated by subtracting the average denaturing temperature of STING apoprotein from the average denaturing temperature of STING CDN complex.

T1 sequence (Q86WV6 140-343 G230A/H232R/R293Q): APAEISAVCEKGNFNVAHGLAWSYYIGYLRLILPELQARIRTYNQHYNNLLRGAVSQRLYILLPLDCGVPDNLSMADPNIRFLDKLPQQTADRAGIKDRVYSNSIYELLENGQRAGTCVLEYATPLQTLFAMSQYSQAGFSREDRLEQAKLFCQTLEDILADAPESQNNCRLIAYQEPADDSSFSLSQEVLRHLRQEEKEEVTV

For orientation: ΔTm means the change in melting temperature against a reference sample. On to `Nc1ncnc2c1ncn2[C@@H]1O[C@@H]2COP(=O)(O)O[C@@H]3[C@@H](F)[C@@H](COP(=O)(O)O[C@H]2[C@H]1O)C[C@H]3n1cnc2c(=O)[nH]cnc21` [Compound 126, (1S,6R,8R,9R,10S,15R,17R,18S)-8-(6-amino-9H-purin-9-yl)-18-fluoro-3,9,12-trihydroxy-17-(6-oxo-6,9-dihydro-1H-purin-9-yl)-2,4,7,11,13-pentaoxa-3λ^5,12λ^5-diphosphatricyclo[13.2.1.0^6,10]octadecane-3,12-dione], for which the ΔTm at 150 µM is 15.8 °C.
Same read-out and setting: as for `Nc1nc2c(ncn2[C@@H]2C[C@@H]3COP(=O)(O)OC4C(O)[C@H](n5cnc6c(S)ncnc65)O[C@@H]4COP(=O)(O)OC2C3O)c(=O)[nH]1` (stereo partly drawn) [Compound 107, (6R,8R,15R,17R)-17-(2-amino-6-oxo-6,9-dihydro-1H-purin-9-yl)-3,9,12,18-tetrahydroxy-8-(6-sulfanyl-9H-purin-9-yl)-2,4,7,11,13-pentaoxa-3λ^5,12λ^5-diphosphatricyclo[13.2.1.0^6,10]octadecane-3,12-dione], the figure is 7.9 °C.
The same measure, in the same setting: as for `Nc1ncnc2c1c(I)cn2[C@@H]1O[C@@H]2COP(=O)(O)OC3C(O)[C@@H](COP(=O)(O)OC2C1O)C[C@H]3n1cnc2c(=O)[nH]cnc21` (stereo partly drawn) [Compound 124, (6R,8R,15R,17R)-8-{4-amino-5-iodo-7H-pyrrolo[2,3-d]pyrimidin-7-yl}-3,9,12,18-tetrahydroxy-17-(6-oxo-6,9-dihydro-1H-purin-9-yl)-2,4,7,11,13-pentaoxa-3λ^5,12λ^5-diphosphatricyclo[13.2.1.0^6,10]octadecane-3,12-dione], the figure is 11.3 °C.
As for `Nc1ncnc2c1ncn2[C@@H]1O[C@@H]2COP(=O)(O)OC3C(O)[C@@H](COP(=O)(O)OC2C1O)C[C@H]3n1cnc2c(=O)[nH]cnc21` (stereo partly drawn) [Compound 121, (6R,8R,15R,17R)-8-(6-amino-9H-purin-9-yl)-3,9,12,18-tetrahydroxy-17-(6-oxo-6,9-dihydro-1H-purin-9-yl)-2,4,7,11,13-pentaoxa-3λ^5,12λ^5-diphosphatricyclo[13.2.1.0^6,10]octadecane-3,12-dione], the “DSF ΔTm AQ STING” value is 17.0 °C.
As for `Nc1ncc2ncn([C@@H]3O[C@@H]4COP(=O)(O)OC5C(O)[C@@H](COP(=O)(O)OC4C3O)C[C@H]5n3cnc4c(=O)[nH]c(N)nc43)c2n1` (stereo partly drawn) [Compound 106, (6R,8R,15R,17R)-17-(2-amino-6-oxo-6,9-dihydro-1H-purin-9-yl)-8-(2-amino-9H-purin-9-yl)-3,9,12,18-tetrahydroxy-2,4,7,11,13-pentaoxa-3λ^5,12λ^5-diphosphatricyclo[13.2.1.0^6,10]octadecane-3,12-dione], the ΔTm at 150 µM was determined as 13.8 °C.
Still for that read-out and setting: as for `Nc1nc2c(ncn2[C@@H]2C[C@@H]3COP(=O)(O)OC4C(O)[C@H](n5cnc6c(N)ncnc65)O[C@@H]4COP(=O)(O)OC2C3O)c(=O)[nH]1` (stereo partly drawn) [Compound 102, (6R,8R,15R,17R)-17-(2-amino-6-oxo-6,9-dihydro-1H-purin-9-yl)-8-(6-amino-9H-purin-9-yl)-3,9,12,18-tetrahydroxy-2,4,7,11,13-pentaoxa-3λ^5,12λ^5-diphosphatricyclo[13.2.1.0^6,10]octadecane-3,12-dione], the figure is 19.8 °C; as for `Nc1nc2c(ncn2[C@@H]2C[C@@H]3COP(=O)(O)OC4C(O)[C@H](n5cnc6c(N)nc(F)nc65)O[C@@H]4COP(=O)(O)OC2C3O)c(=O)[nH]1` (stereo partly drawn) [Compound 103, (6R,8R,15R,17R)-8-(6-amino-2-fluoro-9H-purin-9-yl)-17-(2-amino-6-oxo-6,9-dihydro-1H-purin-9-yl)-3,9,12,18-tetrahydroxy-2,4,7,11,13-pentaoxa-3λ^5,12λ^5-diphosphatricyclo[13.2.1.0^6,10]octadecane-3,12-dione], 15.2 °C.
As for `Nc1ncnc2c1ncn2[C@@H]1O[C@@H]2COP(=O)(S)O[C@@H]3[C@H](F)[C@@H](COP(=O)(S)O[C@H]2[C@H]1F)C[C@H]3n1cnc2c(=O)[nH]cnc21` (single isomer, unassigned) [Compound 128d], the “DSF ΔTm AQ STING” value came to 21.3 °C.
Consider `Nc1ncnc2c1ncn2[C@@H]1O[C@@H]2COP(=O)(S)O[C@@H]3[C@H](F)[C@@H](COP(=O)(S)O[C@H]2[C@H]1F)C[C@H]3n1cnc2c(=O)[nH]cnc21` (single isomer, unassigned) [Compound 128a], for which the ΔTm at 150 µM stood at 16.5 °C.
`Nc1ncnc2c1ccn2[C@@H]1O[C@@H]2COP(=O)(O)OC3C(O)[C@@H](COP(=O)(O)OC2C1O)C[C@H]3n1cnc2c(=O)[nH]cnc21` (stereo partly drawn) [Compound 122, (6R,8R,15R,17R)-8-{4-amino-7H-pyrrolo[2,3-d]pyrimidin-7-yl}-3,9,12,18-tetrahydroxy-17-(6-oxo-6,9-dihydro-1H-purin-9-yl)-2,4,7,11,13-pentaoxa-3λ^5,12λ^5-diphosphatricyclo[13.2.1.0^6,10]octadecane-3,12-dione]: the ΔTm at 150 µM was determined as 14.6 °C.
Consider `Nc1ncnc2c1ncn2[C@@H]1O[C@@H]2COP(=O)(O)OC3C(O)[C@@H](COP(=O)(O)OC2C1O)C[C@H]3n1cnc2c(=O)[nH]cnc21` (stereo partly drawn) [Compound 120, (6R,8R,15R,17R)-8-(6-amino-9H-purin-9-yl)-3,9,12,18-tetrahydroxy-17-(6-oxo-6,9-dihydro-1H-purin-9-yl)-2,4,7,11,13-pentaoxa-3λ^5,12λ^5-diphosphatricyclo[13.2.1.0^6,10]octadecane-3,12-dione], for which the shift in melting temperature (ΔTm) at 150 µM stood at 18.3 °C.
On the same count and under the same terms, as for `CSc1ncnc2c1ncn2[C@@H]1O[C@@H]2COP(=O)(O)OC3C(O)[C@@H](COP(=O)(O)OC2C1O)C[C@H]3n1cnc2c(=O)[nH]cnc21` (stereo partly drawn) [Compound 125, (1S,6R,8R,9R,10S,15R,17R,18R)-3,9,12,18-tetrahydroxy-8-[16-(methylsulfanyl)-9H-purin-9-yl]-17-(6-oxo-6,9-dihydro-1H-purin-9-yl)-2,4,7,11,13-pentaoxa-3λ^5,12λ^5-diphosphatricyclo[13.2.1.0^6,10]octadecane-3,12-dione], the figure is 11.4 °C; as for `Nc1nc2c(ncn2[C@@H]2C[C@@H]3COP(=O)(O)OC4C(F)[C@H](n5cnc6c(N)nc(F)nc65)O[C@@H]4COP(=O)(O)OC2C3O)c(=O)[nH]1` (stereo partly drawn) [Compound 111, (6R,8R,15R,17R)-8-(6-amino-2-fluoro-9H-purin-9-yl)-17-(2-amino-6-oxo-6,9-dihydro-1H-purin-9-yl)-9-fluoro-3,12,18-trihydroxy-2,4,7,11,13-pentaoxa-3λ^5,12λ^5-diphosphatricyclo[13.2.1.0^6,10]octadecane-3,12-dione], 13 °C.
Turning to `CNc1ncnc2c1ncn2[C@@H]1O[C@@H]2COP(=O)(O)OC3C(O)[C@@H](COP(=O)(O)OC2C1O)C[C@H]3n1cnc2c(=O)[nH]c(N)nc21` (stereo partly drawn) [Compound 108, (6R,8R,15R,17R)-17-(2-amino-6-oxo-6,9-dihydro-1H-purin-9-yl)-3,9,12,18-tetrahydroxy-8-[6-(methylamino)-9H-purin-9-yl]-2,4,7,11,13-pentaoxa-3λ^5,12λ^5-diphosphatricyclo[13.2.1.0^6,10]octadecane-3,12-dione], the ΔTm at 150 µM was 12.5 °C.
